A short description of series [1]: Saturation concentration of gemcitabine in aqueous ethyl alcohol solutions (Example 3). The conditions noted are these: interpolation (polynomial of the 6th degree), about 66 percent by volume of ethyl alcohol, pH 10±0.5. The series is classed as physicochemical. The procedure: In order to determine the saturation concentration of gemcitabine in aqueous ethyl alcohol solutions, gemcitabine solutions with various volume percentages of ethyl alcohol were prepared and analyzed.
Gemcitabine hydrochloride was placed beforehand in the mixing vessel, reacted with a stoichiometric amount of alkalizer (1N sodium hydroxide) dissolved in water, then treated each time with 80% of the required amounts of water for injection as determined in preliminary tests as well as with the amounts of ethyl alcohol required each time.
The components contained in the batch were subsequently dissolved at room temperature (19-23° C.) while agitating for 6 hours such that an undissolved sediment of gemcitabine hydrochloride remained in the mixing vessel. The pH of the batch was determined potentiometrically and, when required, adjusted to a pH of 10 with 1N sodium hydroxide or 1N hydrochloric acid, so as to achieve at this pH a complete conversion of the gemcitabine hydrochloride to the dissolved gemcitabine base.
The batch was stored for 24 hours at 19-23° C. […] These batches were then filtered until free of particles, and the gemcitabine content was determined by HPLC.

Series [2] in a line: Maximum solubility of gemcitabine hydrochloride at 66 vol. % ethyl alcohol after dissolving at 35-45° C. (Example 4). The note with it: dissolved at 35-45° C. for 6 hours, cooled, stored 24 hours at 19-23° C. The series is classed as physicochemical. The method, then:
The maximum solubility of gemcitabine hydrochloride was determined with further use of 1N sodium hydroxide, water for injection and absolute ethyl alcohol in a proportion of 66 percent by volume recognized as optimum for that purpose, at increased solution temperatures (35-45° C. for 6 hours under agitation) and subsequent cooling to room temperature (19-23° C.), and then stored for 24 hours at 19-23° C.

The conditions of series [3]: cited from earlier work.

In brackets after ≈: the same amount, converted by molar mass. Structures can show the parent of a compound that is named as a salt. Where two headings read alike, the source gives them in different places.

As for `Nc1ccn([C@@H]2O[C@H](CO)[C@@H](O)C2(F)F)c(=O)n1` [gemcitabine hydrochloride], the maximum gemcitabine solubility in series [1] (hydrochloride) came out at 55 mg/mL. The “content in particle-free supernatant (maximum solubility)” value in series [2] (hydrochloride) was 108.3 mg/mL.
For the molecule `Nc1ccn([C@@H]2O[C@H](CO)[C@@H](O)C2(F)F)c(=O)n1` [gemcitabine, 2′-deoxy-2′,2′-difluorocytidine], the solubility (commonly the dissolved amount per volume that the medium holds) at 6 h in series [1] (aqueous ethyl alcohol solution, 21 °C, pH 10, aqueous with cosolvent or surfactant or cyclodextrin, thermodynamic from solid, read-out: maximum gemcitabine solubility) is 50 mg/mL (≈ 190 mM); in series [2] (aqueous ethyl alcohol solution, aqueous with cosolvent or surfactant or cyclodextrin, thermodynamic from solid, read-out: content in particle-free supernatant (maximum solubility)), 95.1 mg/mL (≈ 361 mM). Moreover, the solubility in water in series [3] (pH of 5) is 16.0 mg/mL (≈ 60.8 mM); in series [3] (pH of 7), 15.3 mg/mL (≈ 58.1 mM); in series [3] (pH of 9), 15.8 mg/mL (≈ 60 mM); in series [3] (pH range of 2.7 to 3.3) it was “about 38 mg/ml”.

The values above are taken from US20060089329A1, “Ready-to-use gemcitabine solution concentrates” (priority 2004, published 2006).
